Structures are written as SMILES.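 The compound was tested at five concentrations on cells cultured in 96-well plates, with a 48-hour exposure period. GI50 marks 50% less growth. At the TGI there is no net growth.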 Where only a bound is given, the exact number is not on record here.

Consider ten molecules from PubChem BioAssay (NCI).

What all share (assay): DTP human tumour cell line panel, 48 h
Assay [1] has as its system 786-0 renal.
Assay [2] has as its system HOP-62 NSCLC.
The subject of assay [3] is HT29 colon.
For assay [4], the system named is MALME-3M melanoma.
Assay [5] relates to OVCAR-5 ovarian.
Assay [6] relates to SK-MEL-5 melanoma.
Assay [7] has as its system SN12C renal.
In assay [8] the test system is SNB-75 CNS.
Assay [9] has as its system A549 NSCLC.
Assay [10] deals with IGROV1 ovarian.

Take `COc1ccc(/C=N\Nc2ccc([N+](=O)[O-])cn2)cc1OC`: the GI50 (commonly the concentration at which growth is held to half of that of the control) in assay [1] was 3.46 µM; in [2], 10.5 µM; in assay [3] it was more than 100 µM; in assay [4], more than 100 µM; in assay [5], more than 100 µM; in assay [6], more than 100 µM. Moreover, the GI50 in [7] is more than 100 µM; in [8], 2.9 µM. Further, the TGI in [1], in assay [2], in assay [3], in assay [4], in [5] and in assay [6] was more than 100 µM each time. The TGI (usually the concentration at which net growth stops) is more than 100 µM in [7] and 16.4 µM in [8].

As to `Cc1cc(C)c(Cn2cnc3c(Cl)ncnc32)c(C)c1CCl`, the GI50 is more than 100 µM in assay [1]; 37.7 µM in [9]; more than 100 µM in assay [2]; 25.8 µM in assay [3]; more than 100 µM in [10]; more than 100 µM in assay [5]. Further, the GI50 in assay [6] and in [7] was more than 100 µM throughout. Besides, the TGI in assay [1], in assay [9], in assay [2], in assay [3], in assay [10] and in assay [5] was more than 100 µM each time. Besides, the TGI in assay [6] and in assay [7] was more than 100 µM each time.

Regarding `C=C(Nc1ccc([N+](=O)[O-])cc1[N+](=O)[O-])c1c/c(=N\NC(N)=S)c2ccccc2o1`, the TGI in assay [1], in assay [9], in assay [2], in assay [3], in assay [10] and in assay [5] was more than 100 µM in each case. The TGI in assay [6], in assay [7] and in assay [8] was more than 100 µM each time.

On to `CC(C)(C)C1CCC2c3c([nH]c4ccccc34)C3C(=O)N(c4ccccc4)C(=O)C3C2C1` (centres undefined), for which the total growth inhibition concentration (TGI) in assay [1] was 26 µM; in [9], 46 µM; in assay [3], more than 100 µM; in assay [10], 39.4 µM; in assay [4], 7.31 µM; in [5], more than 100 µM. For the same molecule, the total growth inhibition concentration (TGI) worked out at 17.4 µM in assay [7] and 6.04 µM in assay [8].

For `O=Cc1ccc(-c2ccc(-c3nc4ccccc4o3)cc2)o1`, the GI50 in assay [1] was 24.4 µM; in assay [9] it was 58.9 µM; in assay [2], 49.2 µM; in assay [3], 53.2 µM; in assay [10], 38.6 µM; in assay [4] it was 24.6 µM. Moreover, the GI50 was 29 µM in assay [5], 22 µM in assay [6] and 81.9 µM in assay [8]. The TGI in [1] is 92.8 µM; in [9] it was more than 100 µM; in assay [2] it was more than 100 µM; in assay [3] it was more than 100 µM; in assay [10], more than 100 µM; in assay [4], 65 µM. In addition, the results for the TGI in assay [5], in assay [6] and in assay [8] were 95.2 µM, 62 µM and more than 100 µM, respectively.

With `CCN(CC)CCCC(C)N=C(C1=C(C(=NC(C)CCCN(CC)CC)c2cccc(OC)c2)C(=O)NC1=O)c1cccc(OC)c1` (centres undefined), the GI50 in assay [1] is 1.8 µM; in assay [9] it was 0.966 µM; in assay [2], 0.825 µM; in assay [3], 0.631 µM; in assay [10], 3.67 µM; in assay [4], 1.11 µM. Besides, the GI50 is 0.888 µM in assay [6], 2.38 µM in assay [7] and 1.65 µM in assay [8]. The TGI in assay [1] was 7.86 µM; in [9], 2.08 µM; in [2], 2.34 µM; in [3], 1.79 µM; in assay [10] it was 20.6 µM; in assay [4] it was 2.07 µM. In addition, the TGI in assay [6] worked out at 1.66 µM; in assay [7] it was 14.3 µM; in assay [8], 6.81 µM.

As for `COc1cccc(/C=C/C(=O)c2ccc(Cl)cc2Cl)c1`, the GI50 in assay [1] was 12.8 µM; in [9], 10.5 µM; in [3] it was 15.1 µM; in [10], 15 µM; in assay [5], 13.6 µM; in [6], 9.38 µM. Moreover, the figures for the GI50 in assay [7] and in [8] were 8.72 µM and 13.9 µM, respectively. The TGI is 40.7 µM in [1]; 22.7 µM in assay [9]; more than 50 µM in [3]; more than 50 µM in assay [10]; 43.7 µM in assay [5]; 17.6 µM in assay [6]. Also, the results for the TGI in [7] and in [8] were 16.5 µM and 36.7 µM, respectively.

On to `C=C[C@@]1(O)CCCC2=C(C(=O)OCC)CC[C@]21C`, for which the concentration for total growth inhibition (TGI) in [1], in [9], in assay [3], in [10], in [4] and in [5] was more than 100 µM throughout. For the same molecule, the TGI in [6] and in assay [7] was more than 100 µM each time.

With `O=S1Nc2c(Cl)cc(Cl)c3c(Cl)cc(Cl)c(c23)N1`, the TGI in [1] was 41.9 µM; in assay [9], more than 100 µM; in assay [3], more than 100 µM; in assay [10], more than 100 µM; in assay [4], more than 100 µM; in assay [5] it was more than 100 µM. Also, the values for the TGI in assay [6], in [7] and in [8] were more than 100 µM, more than 100 µM and 55.3 µM, respectively.

As to `N#CCN/C=C\C(=O)c1ccc(Cl)cc1`, the GI50 in assay [1] was 33.4 µM; in assay [9] it was more than 100 µM; in assay [2], 38.6 µM; in [10] it was 31 µM; in [4], 17.9 µM; in [5], 37.6 µM. Besides, the GI50 was 17.6 µM in assay [6] and 39.3 µM in assay [7]. Also, the TGI in assay [1] is more than 100 µM; in assay [9], more than 100 µM; in assay [2], more than 100 µM; in [10], more than 100 µM; in assay [4], 53.6 µM; in assay [5], 97.3 µM. Moreover, the TGI is 38.8 µM in assay [6] and more than 100 µM in assay [7].
